# Source: ChEMBL document CHEMBL1148644, “Human PEPT1 pharmacophore distinguishes between dipeptide transport and binding” (J Med Chem, 2006)
# pEC50, pIC50: −log10 of the molar value. Where a SMILES comes first, the peptide text is derived from it. [ ]: non-standard residue; d: D form. Tic = O=C(O)[C@@H]1Cc2ccccc2CN1; Sar = CNCC(=O)O
# Key:
# [1] = biological target: T1, Solute carrier family 15 member 1 (Homo sapiens, UniProt P46059); assay: Activation of human PEPT1 expressed in MDCK cells; assay type: functional, cell-based
# T1 sequence (P46059 whole entry): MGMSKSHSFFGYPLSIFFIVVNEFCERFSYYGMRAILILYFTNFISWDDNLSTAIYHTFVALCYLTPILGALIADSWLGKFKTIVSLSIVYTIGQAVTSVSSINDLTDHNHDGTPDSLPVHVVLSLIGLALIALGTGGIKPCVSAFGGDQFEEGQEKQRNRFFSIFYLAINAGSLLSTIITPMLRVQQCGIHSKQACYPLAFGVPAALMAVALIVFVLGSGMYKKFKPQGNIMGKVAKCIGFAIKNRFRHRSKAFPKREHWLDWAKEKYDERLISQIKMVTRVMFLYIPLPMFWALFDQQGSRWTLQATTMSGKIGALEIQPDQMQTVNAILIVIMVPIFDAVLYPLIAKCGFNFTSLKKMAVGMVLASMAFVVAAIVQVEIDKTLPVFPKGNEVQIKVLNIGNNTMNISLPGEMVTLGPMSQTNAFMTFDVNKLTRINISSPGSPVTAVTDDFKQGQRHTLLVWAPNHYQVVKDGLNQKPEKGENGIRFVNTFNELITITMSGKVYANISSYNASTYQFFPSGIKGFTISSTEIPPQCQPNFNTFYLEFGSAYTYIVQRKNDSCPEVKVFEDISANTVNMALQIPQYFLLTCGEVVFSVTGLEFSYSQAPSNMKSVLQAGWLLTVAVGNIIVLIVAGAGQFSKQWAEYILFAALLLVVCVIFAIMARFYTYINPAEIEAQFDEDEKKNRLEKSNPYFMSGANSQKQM
# [2] = biological target: T1, Solute carrier family 15 member 1; assay: Binding affinity to human PEPT1 assessed as inhibition of [14C]Gly-Sar uptake in MDCK cells; assay type: functional, cell-based; conditions: for pIC50: read-out: IC50; for IC50: mdck
Compound,pEC50 [1],pIC50 [2],IC50 [2]
N[C@@H](Cc1c[nH]c2ccccc12)C(=O)NCC(=O)O (H-Trp-Gly-OH),3.59,3.14,–
N[C@@H](CC(=O)O)C(=O)NCC(=O)O (H-Asp-Gly-OH),3.36,3.09,–
NCC(=O)NCC(=O)O (H-Gly-Gly-OH),3.32,3.09,–
N[C@@H](Cc1c[nH]c2ccccc12)C(=O)N[C@@H](Cc1c[nH]c2ccccc12)C(=O)O (H-Trp-Trp-OH),–,3.60,–
CC(C)C[C@H](NC(=O)CN)C(=O)O,3.77,4.15,–
CC(C)[C@H](NC(=O)[C@@H](N)CCCCN)C(=O)O (H-Lys-Val-OH),3.85,3.60,–
O=C(O)C[C@H](NC(=O)[C@@H]1CCCN1)C(=O)O (H-Pro-Asp-OH),< 2.30,2.04,–
NCC(=O)N1CCC[C@H]1C(=O)O [GLYCYL PROLINE] (H-Gly-Pro-OH),3.89,3.48,–
CC(C)[C@H](N)C(=O)N[C@@H](Cc1c[nH]c2ccccc12)C(=O)O [VALYLTRYPTOPHAN] (H-Val-Trp-OH),4.40,4.00,–
NCCCC[C@H](N)C(=O)N1CCC[C@@H]1C(=O)O,3.72,3.41,–
NC(N)=NCCC[C@H](N)C(=O)NCC(=O)O (H-Arg-Gly-OH),3.57,3.41,–
C[C@H](N)C(=O)N[C@@H](Cc1ccc(O)cc1)C(=O)O (H-Ala-Tyr-OH),4.22,3.77,–
NCCCC[C@H](NC(=O)[C@@H](N)CCCCN)C(=O)O,–,1.96,–
NCC(=O)N[C@@H](Cc1c[nH]cn1)C(=O)O (H-Gly-His-OH),3.40,3.09,–
N[C@@H](CC(=O)O)C(=O)N[C@@H](Cc1c[nH]c2ccccc12)C(=O)O (H-Asp-Trp-OH),3.33,2.88,–
NC(=O)CNC(=O)[C@@H](N)Cc1ccc(O)cc1,–,–,Not Active
NCC(=O)N[C@@H](Cc1ccc(O)cc1)C(=O)O (H-Gly-Tyr-OH),3.85,3.92,–
C[C@H](NC(=O)[C@@H](N)Cc1ccc(O)cc1)C(=O)O,4.00,3.96,–
NC(=O)[C@H](Cc1ccc(O)cc1)NC(=O)[C@@H](N)Cc1ccccc1 (H-Phe-Tyr-NH2),4.52,4.70,–
NC(=O)CC[C@H](NC(=O)[C@@H](N)CCC(N)=O)C(=O)O (H-Gln-Gln-OH),4.00,3.82,–
NCC(=O)NCC(=O)NCC(N)=O (H-Gly-Gly-Gly-NH2),–,–,Not Active

Compound,pEC50 [1],pIC50 [2],IC50 [2]
NCCCC[C@H](N)C(=O)N[C@@H](CCC(=O)O)C(=O)O (H-Lys-Glu-OH),3.28,3.09,–
N[C@@H](Cc1ccc(O)cc1)C(=O)NCC(=O)O,3.62,3.48,–
NC(N)=NCCC[C@H](NC(=O)[C@@H](N)CCCN=C(N)N)C(=O)O (H-Arg-Arg-OH),–,2.14,–
CC(C)C[C@H](NC(=O)CN)C(=O)NCC(=O)O (H-Gly-Leu-Gly-OH),3.68,3.62,–
NCC(=O)N[C@@H](Cc1ccc(O)cc1)C(N)=O (H-Gly-Tyr-NH2),–,–,Not Active
CC(=O)N[C@@H](Cc1ccccc1)C(=O)N[C@@H](Cc1ccc(O)cc1)C(N)=O (Ac-Phe-Tyr-NH2),–,–,Not Active
NCC(=O)NCC(=O)NCC(=O)O,3.24,2.97,–
NCC(=O)N[C@@H](Cc1c[nH]c2ccccc12)C(=O)O (H-Gly-Trp-OH),3.48,3.28,–
NCCCC[C@H](N)C(=O)N[C@@H](CCCN=C(N)N)C(=O)O (H-Lys-Arg-OH),–,2.14,–
O=C(O)CNC(=O)[C@@H]1CCCN1 (H-Pro-Gly-OH),–,< 1.80,–
CC(C)[C@H](NC(=O)[C@@H](N)Cc1c[nH]c2ccccc12)C(=O)O (H-Trp-Val-OH),4.30,4.05,–
N[C@@H](CO)C(=O)N[C@@H](CO)C(=O)O (H-Ser-Ser-OH),3.85,3.89,–
N[C@@H](CCC(=O)O)C(=O)N[C@@H](CCC(=O)O)C(=O)O (H-Glu-Glu-OH),3.00,3.21,–
N[C@@H](CC(=O)O)C(=O)N[C@@H](CC(=O)O)C(=O)O (H-Asp-Asp-OH),3.00,3.20,–
CC(C)[C@H](N)C(=O)N[C@H](C(=O)O)C(C)C [VAL-VAL] (H-Val-Val-OH),4.15,3.68,–
C[C@H](N)C(=O)N[C@@H](Cc1ccccc1)C(=O)O,4.10,4.15,–
NCC(=O)N[C@@H](Cc1ccccc1)C(N)=O (H-Gly-Phe-NH2),–,–,Not Active
C[C@H](N)C(=O)N[C@@H](CCCCN)C(=O)O (H-Ala-Lys-OH),3.66,3.55,–
NCC(=O)NCC(=O)NCC(=O)NCC(=O)O (H-GGGG-OH),–,–,Not Active
NCCCC[C@H](NC(=O)CN)C(=O)O (H-Gly-Lys-OH),3.12,2.90,–
N[C@@H](Cc1c[nH]cn1)C(=O)NCC(=O)O (H-His-Gly-OH),3.55,3.47,–

Compound,pEC50 [1],pIC50 [2],IC50 [2]
N[C@@H](Cc1c[nH]cn1)C(=O)N[C@@H](Cc1c[nH]cn1)C(=O)O,3.43,3.40,–
O=C(O)[C@H](CO)NC(=O)[C@@H]1CCCN1 (H-Pro-Ser-OH),2.80,< 1.80,–
NC(=O)[C@@H]1Cc2ccccc2CN1C(=O)[C@@H](N)Cc1ccc(O)cc1 (H-Tyr-[Tic]-NH2),–,–,Not Active
O=C(O)[C@@H]1CCCN1C(=O)[C@@H]1CCCN1 (H-Pro-Pro-OH),3.15,3.10,–
N[C@@H](CCC(=O)O)C(=O)NCC(=O)O (H-Glu-Gly-OH),3.29,3.41,–
CC(C)C[C@H](NC(=O)[C@@H](N)CC(C)C)C(=O)O [LEU-LEU],4.10,3.77,–
C[C@H](N)C(=O)N[C@@H](Cc1c[nH]c2ccccc12)C(=O)O (H-Ala-Trp-OH),4.10,3.59,–
C[C@H](N)C(=O)N[C@@H](CC(=O)O)C(=O)O (H-Ala-Asp-OH),3.64,3.35,–
N[C@@H](Cc1c[nH]cn1)C(=O)N[C@@H](Cc1c[nH]c2ccccc12)C(=O)O,3.72,3.02,–
NC(=O)CC[C@H](N)C(=O)N[C@@H](CCC(=O)O)C(=O)O (H-Gln-Glu-OH),3.38,3.29,–
NCC(=O)N[C@@H](CCC(=O)O)C(=O)O (H-Gly-Glu-OH),2.96,3.19,–
N[C@@H](Cc1ccccc1)C(=O)NCC(=O)O (H-Phe-Gly-OH),3.96,3.77,–
C[C@H](NC(=O)[C@@H](N)Cc1c[nH]c2ccccc12)C(=O)O (H-Trp-Ala-OH),4.00,3.59,–
CN(CC(=O)O)C(=O)CN [GLYCYLSARCOSINE] (H-Gly-[Sar]-OH),3.27,2.94,–
NCCCC[C@H](NC(=O)[C@@H]1CCCN1)C(=O)O (H-Pro-Lys-OH),–,< 1.80,–
NC(=O)[C@H](Cc1ccc(O)cc1)NC(=O)[C@@H](N)Cc1ccc(O)cc1 (H-Tyr-Tyr-NH2),–,2.04,–
NCCCC[C@H](N)C(=O)N[C@@H](Cc1c[nH]c2ccccc12)C(=O)O (H-Lys-Trp-OH),–,3.18,–
N[C@@H](Cc1c[nH]c2ccccc12)C(=O)N[C@@H](Cc1ccc(O)cc1)C(=O)O (H-Trp-Tyr-OH),–,4.10,–
NCCCC[C@H](NC(=O)[C@@H](N)CCCN=C(N)N)C(=O)O (H-Arg-Lys-OH),–,2.09,–
N[C@@H](Cc1ccc(O)cc1)C(=O)N[C@@H](Cc1c[nH]c2ccccc12)C(=O)O (H-Tyr-Trp-OH),–,4.00,–
NCCC[C@H](NC(=O)[C@@H](N)CCCN)C(=O)O,–,–,Not Active
